{"source": "patent US20180327367A1", "about": "“MACROCYCLIC BROAD SPECTRUM ANTIBIOTICS” (priority 2015, published 2018)", "key": {"[1]": {"test_system": "Methicillin Resistant Staphylococcus aureus strain USA 300, NRS384", "assay": "Minimum inhibitory concentration, broth micro-dilution (CLSI), S. aureus", "format": "cell-based", "details": "Staphylococcus aureus, MRSA / NRS 384 / USA300, 22 h, 35° C., 22 hours", "how_it_was_run": "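Colonies grown 20 hours at 35° C were suspended in cation-adjusted Mueller Hinton Broth with 0.002% Tween-80. Cells were then added to 2-fold compound dilutions starting at 4 or 0.5 μg/mL, at OD600 0.0005.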"}, "[2]": {"test_system": "Escherichia coli MC4100 harboring the IMP4213 (E. coli IMP)", "assay": "microbe, parasite or virus in culture", "format": "cell-based", "details": "Escherichia coli, 22 h, read-out: MIC (μg/mL) E. coli IMP, E. coli MC4100 IMP4213, increased outer-membrane permeability; 35° C., 22 hours", "how_it_was_run": "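Broth micro-dilution per CLSI in cation-adjusted Mueller Hinton Broth with 0.002% Tween-80; E. coli MC4100 carries IMP4213, raising outer-membrane permeability. Compounds tested as 2-fold serial dilutions (10 concentrations) from 4 μg/mL (protocol 2) or 0.5 μg/mL (protocol 3); inoculum OD600 0.0005, 35° C for 22 hours.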"}, "[3]": {"test_system": "Escherichia coli ATCC 25922", "assay": "Minimum inhibitory concentration, broth micro-dilution (CLSI), E. coli", "format": "cell-based", "details": "Escherichia coli, ATCC25922, 22 h, 35° C., 22 hours"}, "[4]": {"target": "T1, SpsB (Staphylococcus aureus signal peptidase) (Staphylococcus aureus, UniProt P0A070)", "T1 construct": "This assay uses a suspension of Staphylococcus aureus cells as a source of SpsB instead of recombinant SpsB protein; endogenous in cells; host or cells: S. aureus, USA300 background, overexpressing SpsB (whole-cell suspension from frozen pellets)", "T1 sequence (P0A070 whole entry)": "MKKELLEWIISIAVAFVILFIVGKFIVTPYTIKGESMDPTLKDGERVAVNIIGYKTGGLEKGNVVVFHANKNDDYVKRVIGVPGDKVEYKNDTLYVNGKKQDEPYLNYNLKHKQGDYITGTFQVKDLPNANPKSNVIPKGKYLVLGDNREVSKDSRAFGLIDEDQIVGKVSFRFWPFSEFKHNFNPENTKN", "assay": "cell-based", "format": "biochemical", "details": "SpsB IC50, whole-cell S. aureus (USA300 background, overexpressing SpsB) as SpsB source; fluorogenic peptide substrate, kinetic read 30 min", "how_it_was_run": "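Whole S. aureus cells (USA300, overexpressing SpsB) in PBS with MgCl2, CaCl2 and 0.1% Tween-80 served as enzyme source, mixed with 20 μM stock of (Dabcyl)βAla-KPAKAAE(Edans) substrate before use. Fluorescence (ex 340/em 490 nm) read kinetically over 30 min. IC50 from reaction rate versus 11-point inhibitor concentration.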"}, "[5]": {"details": "MRSA USA 300 NRS384, read-out: MIC (μg/mL) S. aureus"}, "[6]": {"details": "E. coli ATCC 25922, read-out: MIC (μg/mL) E. coli"}, "[7]": {"details": "read-out: MIC (μg/mL) S. aureus, MRSA USA 300 NRS384"}, "[8]": {"details": "read-out: MIC (μg/mL) E. coli, E. coli ATCC 25922"}}, "note": "Where two headings read alike, the source gives them in different places."}
{"compound": "Cc1cc(/C=C/c2ccccc2)ccc1C(=O)N[C@@H](CCN)C(=O)N(C)[C@@H]1C(=O)N[C@@H](C)C(=O)N[C@H](C(=O)NCC#N)Cc2ccc(OCCN)c(c2)-c2cc1ccc2OCCN", "note": "[Compound 429]", "values": [{"measurement": "MIC", "setting": "[1]; [5]", "result": 0.063, "unit": "µg/mL"}, {"measurement": "MIC", "setting": "[2]", "result": 0.0078, "unit": "µg/mL"}, {"measurement": "MIC", "setting": "[3]; [6]", "result": 0.75, "unit": "µg/mL"}, {"measurement": "IC50", "setting": "[4]", "result": 810, "unit": "pM"}]}
{"compound": "Cc1cc(C2CCCCC2)ccc1C(=O)N[C@@H](CCN)C(=O)N(C)[C@@H]1C(=O)N[C@@H](C)C(=O)N[C@H](C(=O)NCC#N)Cc2ccc(OCCN)c(c2)-c2cc1ccc2OCCN", "note": "[Compound 431]", "values": [{"measurement": "MIC", "setting": "[1]; [5]", "result": 0.063, "unit": "µg/mL"}, {"measurement": "MIC", "setting": "[2]", "result": 0.023, "unit": "µg/mL"}, {"measurement": "MIC", "setting": "[3]; [6]", "result": 0.88, "unit": "µg/mL"}, {"measurement": "IC50", "setting": "[4]", "result": 770, "unit": "pM"}]}
{"compound": "C[C@@H]1NC(=O)[C@@H](N(C)C(=O)[C@H](CCN)NC(=O)c2ccc(-c3ccc(C4CCCCC4)cc3)cc2)c2ccc(OCCN)c(c2)-c2cc(ccc2OCCN)C[C@@H](C(=O)NCC#N)NC1=O", "note": "[Compound 432]", "values": [{"measurement": "MIC", "setting": "[1]; [7]", "result": 0.094, "unit": "µg/mL"}, {"measurement": "MIC", "setting": "[2]", "result": 0.016, "unit": "µg/mL"}, {"measurement": "MIC", "setting": "[3]; [8]", "result": 0.13, "unit": "µg/mL"}, {"measurement": "IC50", "setting": "[4]", "result": 1400, "unit": "pM"}]}
{"compound": "CCC(C)c1ccc(C(=O)N[C@@H](CCN)C(=O)N(C)[C@@H]2C(=O)N[C@@H](C)C(=O)N[C@H](C(=O)NCC#N)Cc3ccc(OCCN)c(c3)-c3cc2ccc3OCCN)c(C)c1", "note": "(some centres unmarked) [Compound 434]", "values": [{"measurement": "MIC", "setting": "[1]; [5]", "result": 0.25, "unit": "µg/mL"}, {"measurement": "MIC", "setting": "[2]", "result": 0.047, "unit": "µg/mL"}, {"measurement": "MIC", "setting": "[3]; [6]", "result": 2, "unit": "µg/mL"}, {"measurement": "IC50", "setting": "[4]", "result": 1500, "unit": "pM"}]}
{"compound": "Cc1cc(C2CCCCCC2)ccc1C(=O)N[C@@H](CCN)C(=O)N(C)[C@@H]1C(=O)N[C@@H](C)C(=O)N[C@H](C(=O)NCC#N)Cc2ccc(OCCN)c(c2)-c2cc1ccc2OCCN", "note": "[Compound 436]", "values": [{"measurement": "MIC", "setting": "[1]; [5]", "result": 0.047, "unit": "µg/mL"}, {"measurement": "MIC", "setting": "[2]", "result": 0.0078, "unit": "µg/mL"}, {"measurement": "MIC", "setting": "[3]; [6]", "result": 0.38, "unit": "µg/mL"}, {"measurement": "IC50", "setting": "[4]", "result": 780, "unit": "pM"}]}
{"compound": "CCCCCCCc1cc(F)c(C(=O)N[C@@H](CCN)C(=O)N(C)[C@@H]2C(=O)N[C@@H](C)C(=O)N[C@H](C(=O)NCC#N)Cc3ccc(OCCN)c(c3)-c3cc2ccc3OCCN)c(Cl)c1", "note": "[Compound 437]", "values": [{"measurement": "MIC", "setting": "[1]; [5]", "result": 0.063, "unit": "µg/mL"}, {"measurement": "MIC", "setting": "[2]", "result": 0.0078, "unit": "µg/mL"}, {"measurement": "MIC", "setting": "[3]; [6]", "result": 0.25, "unit": "µg/mL"}, {"measurement": "IC50", "setting": "[4]", "result": 900, "unit": "pM"}]}
{"compound": "CCCCCCCCc1cc(C)c(C(=O)N[C@@H](CCN)C(=O)N(C)[C@@H]2C(=O)N[C@@H](C)C(=O)N[C@H](C(=O)NCC#N)Cc3ccc(OCCN)c(c3)-c3cc2ccc3OCCN)s1", "note": "[Compound 438]", "values": [{"measurement": "MIC", "setting": "[1]; [5]", "result": 0.063, "unit": "µg/mL"}, {"measurement": "MIC", "setting": "[2]", "result": 0.031, "unit": "µg/mL"}, {"measurement": "MIC", "setting": "[3]; [6]", "result": 0.38, "unit": "µg/mL"}, {"measurement": "IC50", "setting": "[4]", "result": 780, "unit": "pM"}]}
{"compound": "CCCCCCCOc1ccc(C(=O)N[C@@H](CCN)C(=O)N(C)[C@@H]2C(=O)N[C@@H](C)C(=O)N[C@H](C(=O)NCC#N)Cc3ccc(OCCN)c(c3)-c3cc2ccc3OCCN)c(C(F)F)c1", "note": "[Compound 442]", "values": [{"measurement": "MIC", "setting": "[1]; [5]", "result": 0.063, "unit": "µg/mL"}, {"measurement": "MIC", "setting": "[2]", "result": 0.0078, "unit": "µg/mL"}, {"measurement": "MIC", "setting": "[3]; [6]", "result": 0.19, "unit": "µg/mL"}, {"measurement": "IC50", "setting": "[4]", "result": 2900, "unit": "pM"}]}
{"compound": "Cc1nn(-c2ccc(CC(C)C)cc2)cc1C(=O)N[C@@H](CCN)C(=O)N(C)[C@@H]1C(=O)N[C@@H](C)C(=O)N[C@H](C(=O)NCC#N)Cc2ccc(OCCN)c(c2)-c2cc1ccc2OCCN", "note": "[Compound 443]", "values": [{"measurement": "MIC", "setting": "[1]; [5]", "result": 0.094, "unit": "µg/mL"}, {"measurement": "MIC", "setting": "[2]", "result": 0.047, "unit": "µg/mL"}, {"measurement": "MIC", "setting": "[3]; [6]", "result": 4, "unit": "µg/mL"}, {"measurement": "IC50", "setting": "[4]", "result": 900, "unit": "pM"}]}
{"compound": "Cc1cc(-n2cc(CC(C)C)cn2)ccc1C(=O)N[C@@H](CCN)C(=O)N(C)[C@@H]1C(=O)N[C@@H](C)C(=O)N[C@H](C(=O)NCC#N)Cc2ccc(OCCN)c(c2)-c2cc1ccc2OCCN", "note": "[Compound 445]", "values": [{"measurement": "MIC", "setting": "[1]; [5]", "result": 0.094, "unit": "µg/mL"}, {"measurement": "MIC", "setting": "[2]", "result": 0.016, "unit": "µg/mL"}, {"measurement": "MIC", "setting": "[3]; [6]", "result": 1, "unit": "µg/mL"}, {"measurement": "IC50", "setting": "[4]", "result": 1000, "unit": "pM"}]}
{"compound": "CCCCCCCCc1ccc(C(=O)N[C@@H](CCN)C(=O)N(C)[C@@H]2C(=O)N[C@@H](C)C(=O)N[C@H](C(=O)NCC#N)Cc3ccc(OCCN)c(c3)-c3cc2ccc3OCCN)c(CC(N)=O)c1", "note": "[Compound 448]", "values": [{"measurement": "MIC", "setting": "[1]; [7]", "result": 0.023, "unit": "µg/mL"}, {"measurement": "MIC", "setting": "[2]", "result": 0.016, "unit": "µg/mL"}, {"measurement": "MIC", "setting": "[3]; [8]", "result": 0.75, "unit": "µg/mL"}, {"measurement": "IC50", "setting": "[4]", "result": 930, "unit": "pM"}]}
{"compound": "CCCCCCCCc1ccc(C(=O)N[C@@H](CCN)C(=O)N(C)[C@@H]2C(=O)N[C@@H](C)C(=O)N[C@H](C(=O)NCC#N)Cc3ccc(OCCN)c(c3)-c3cc2ccc3OCCN)c(/C=C/C(N)=O)c1", "note": "[Compound 450]", "values": [{"measurement": "MIC", "setting": "[1]; [5]", "result": 0.13, "unit": "µg/mL"}, {"measurement": "MIC", "setting": "[2]", "result": 0.063, "unit": "µg/mL"}, {"measurement": "MIC", "setting": "[3]; [6]", "result": 16, "unit": "µg/mL"}, {"measurement": "IC50", "setting": "[4]", "result": 660, "unit": "pM"}]}
{"compound": "CCCCCCCCCCCC(=O)N[C@@H](CC#N)C(=O)N(C)[C@@H]1C(=O)N[C@@H](C)C(=O)N[C@H](C(=O)NCC#N)Cc2ccc(OCCN)c(c2)-c2cc1ccc2OCCN", "note": "[Compound 453]", "values": [{"measurement": "MIC", "setting": "[1]; [7]", "result": 0.13, "unit": "µg/mL"}, {"measurement": "MIC", "setting": "[2]", "result": 0.13, "unit": "µg/mL"}, {"measurement": "MIC", "setting": "[3]; [8]", "result": 16, "unit": "µg/mL"}, {"measurement": "IC50", "setting": "[4]", "result": 2300, "unit": "pM"}]}
{"compound": "CCCCCCCCCCCC(=O)N[C@@H](CCn1cncn1)C(=O)N(C)[C@@H]1C(=O)N[C@@H](C)C(=O)N[C@H](C(=O)NCC#N)Cc2ccc(OCCN)c(c2)-c2cc1ccc2OCCN", "note": "[Compound 454]", "values": [{"measurement": "MIC", "setting": "[1]; [5]", "result": 0.13, "unit": "µg/mL"}, {"measurement": "MIC", "setting": "[2]", "result": 0.13, "unit": "µg/mL"}, {"measurement": "MIC", "setting": "[3]; [6]", "result": 32, "unit": "µg/mL"}, {"measurement": "IC50", "setting": "[4]", "result": 1800, "unit": "pM"}]}
